From ChEMBL document CHEMBL1144422, “Symmetrical bis-quinolinium compounds: new human choline kinase inhibitors with antiproliferative activity against the HT-29 cell line” (J Med Chem, 2005)

Assays:
Choline kinase alpha = Choline kinase alpha (Homo sapiens, UniProt P35790); assay: Ex vivo inhibitory concentration against human choline kinase
HT-29 [1] = assay: In vitro antiproliferative effect in […] HT 29 cells; type: functional, cell-based; conditions: Homo sapiens
HT-29 [2] = assay: Antiproliferative activity against HT 29 cells; type: functional, cell-based; conditions: Homo sapiens

Sequence of Choline kinase alpha (P35790 whole entry): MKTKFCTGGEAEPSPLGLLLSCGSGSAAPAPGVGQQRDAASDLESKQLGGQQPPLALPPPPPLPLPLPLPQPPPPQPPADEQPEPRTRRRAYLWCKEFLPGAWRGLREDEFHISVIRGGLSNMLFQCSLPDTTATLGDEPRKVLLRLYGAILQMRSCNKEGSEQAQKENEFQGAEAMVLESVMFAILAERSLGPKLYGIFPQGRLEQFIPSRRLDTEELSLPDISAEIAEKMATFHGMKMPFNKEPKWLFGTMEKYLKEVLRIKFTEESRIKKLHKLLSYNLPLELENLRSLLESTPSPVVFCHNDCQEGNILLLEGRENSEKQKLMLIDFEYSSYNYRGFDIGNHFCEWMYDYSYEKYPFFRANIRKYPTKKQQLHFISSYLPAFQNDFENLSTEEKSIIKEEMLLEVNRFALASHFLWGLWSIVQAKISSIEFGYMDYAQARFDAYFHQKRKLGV

**Q.** Which results are given for `Cc1c[n+](Cc2ccc(-c3ccc(C[n+]4cc(C)c(N)c5ccccc54)cc3)cc2)c2ccccc2c1N`?
**A.** IC50 (Choline kinase alpha): > 200000 nM; IC50 (HT-29 [1]): 3300 nM

**Q.** With `CN(c1ccccc1)c1cc[n+](Cc2ccc(CCc3ccc(C[n+]4ccc(N(C)c5ccccc5)c5ccccc54)cc3)cc2)c2ccccc12` as the molecule, how does the IC50 (Choline kinase alpha) read?
**A.** 1400 nM

**Q.** What about the IC50 (HT-29 [1]) of the same molecule?
**A.** 700 nM

**Q.** For `CN(c1ccc(Cl)cc1)c1cc[n+](Cc2ccc(-c3ccc(C[n+]4ccc(N(C)c5ccc(Cl)cc5)c5ccc(Cl)cc54)cc3)cc2)c2cc(Cl)ccc12`, which IC50 (HT-29 [1]) is on record?
**A.** 1200 nM

**Q.** `CN(c1ccc(Cl)cc1)c1cc[n+](Cc2ccc(CCc3ccc(C[n+]4ccc(N(C)c5ccc(Cl)cc5)c5ccccc54)cc3)cc2)c2ccccc12` was tested. Which IC50 (HT-29 [1]) did it give?
**A.** 700 nM

**Q.** `Nc1cc[n+](Cc2ccc(CCc3ccc(C[n+]4ccc(N)c5ccccc54)cc3)cc2)c2ccccc12` was tested. Which IC50 (Choline kinase alpha) did it give?
**A.** 80000 nM

**Q.** What about the IC50 (HT-29 [1]) of the same molecule?
**A.** 2000 nM

**Q.** With `CN(c1ccc(Cl)cc1)c1cc[n+](Cc2ccc(CCc3ccc(C[n+]4ccc(N(C)c5ccc(Cl)cc5)c5ccc(Cl)cc54)cc3)cc2)c2cc(Cl)ccc12` as the molecule, how does the IC50 (HT-29 [1]) read?
**A.** 800 nM

**Q.** Which results are given for `c1ccc2c(c1)c(N1CCCCCC1)cc[n+]2Cc1ccc(-c2ccc(C[n+]3ccc(N4CCCCCC4)c4ccccc43)cc2)cc1`?
**A.** IC50 (Choline kinase alpha): 2200 nM; IC50 (HT-29 [1]): 500 nM

**Q.** Which results are given for `c1ccc2c(c1)c(N1CCCCCC1)cc[n+]2Cc1ccc(CCc2ccc(C[n+]3ccc(N4CCCCCC4)c4ccccc43)cc2)cc1`?
**A.** IC50 (Choline kinase alpha): 600 nM; IC50 (HT-29 [1]): 300 nM

**Q.** How did the IC50 (Choline kinase alpha) turn out when `c1ccc(Nc2cc[n+](Cc3ccc(CCc4ccc(C[n+]5ccc(Nc6ccccc6)c6ccccc65)cc4)cc3)c3ccccc23)cc1` was run?
**A.** 2300 nM

**Q.** And the IC50 (HT-29 [1])?
**A.** 300 nM

**Q.** Which IC50 (Choline kinase alpha) does the source give for `CN(c1ccccc1)c1cc[n+](Cc2cccc(-c3cccc(C[n+]4ccc(N(C)c5ccccc5)c5ccccc54)c3)c2)c2ccccc12` here?
**A.** 400 nM

**Q.** And the IC50 (HT-29 [1])?
**A.** 800 nM

**Q.** `CN(C)c1cc[n+](Cc2ccc(CCc3ccc(C[n+]4ccc(N(C)C)c5ccccc54)cc3)cc2)c2ccccc12` was tested. Which IC50 (Choline kinase alpha) did it give?
**A.** 10200 nM

**Q.** What about the IC50 (HT-29 [1]) of the same molecule?
**A.** 500 nM

**Q.** How did the IC50 (Choline kinase alpha) turn out when `Cc1c(N)ccc2c(N(C)c3ccc(Cl)cc3)cc[n+](Cc3ccc(-c4ccc(C[n+]5ccc(N(C)c6ccc(Cl)cc6)c6ccc(N)c(C)c65)cc4)cc3)c12` was run?
**A.** 46100 nM

**Q.** What about the IC50 (HT-29 [1]) of the same molecule?
**A.** 19400 nM

**Q.** With `CN(c1ccccc1)c1cc[n+](Cc2cccc(-c3cccc(C[n+]4ccc(N(C)c5ccccc5)c5ccc(Cl)cc54)c3)c2)c2cc(Cl)ccc12` as the molecule, how does the IC50 (Choline kinase alpha) read?
**A.** 3100 nM

**Q.** And the IC50 (HT-29 [1])?
**A.** 1000 nM

**Q.** For `CN(C)c1cc[n+](Cc2cccc(-c3cccc(C[n+]4ccc(N(C)C)c5ccc(Cl)cc54)c3)c2)c2cc(Cl)ccc12`, which IC50 (HT-29 [1]) is on record?
**A.** 700 nM

**Q.** With `Nc1cc[n+](Cc2ccc(-c3ccc(C[n+]4ccc(N)c5ccc(Cl)cc54)cc3)cc2)c2cc(Cl)ccc12` as the molecule, how does the IC50 (Choline kinase alpha) read?
**A.** 63300 nM

**Q.** What about the IC50 (HT-29 [1]) of the same molecule?
**A.** 3200 nM

**Q.** Which IC50 (Choline kinase alpha) does the source give for `Nc1cc[n+](Cc2cccc(-c3cccc(C[n+]4ccc(N)c5ccc(Cl)cc54)c3)c2)c2cc(Cl)ccc12` here?
**A.** 20600 nM

**Q.** What about the IC50 (HT-29 [1]) of the same molecule?
**A.** 1900 nM

**Q.** How did the IC50 (HT-29 [1]) turn out when `Clc1ccc2c(N3CCCC3)cc[n+](Cc3ccc(CCc4ccc(C[n+]5ccc(N6CCCC6)c6ccc(Cl)cc65)cc4)cc3)c2c1` was run?
**A.** 200 nM

**Q.** `c1cc(C[n+]2ccc(N3CCCCCC3)c3ccccc32)cc(-c2cccc(C[n+]3ccc(N4CCCCCC4)c4ccccc43)c2)c1` was tested. Which IC50 (Choline kinase alpha) did it give?
**A.** 500 nM

**Q.** And the IC50 (HT-29 [1])?
**A.** 500 nM

**Q.** Which IC50 (Choline kinase alpha) does the source give for `c1ccc(Nc2cc[n+](Cc3cccc(-c4cccc(C[n+]5ccc(Nc6ccccc6)c6ccccc65)c4)c3)c3ccccc23)cc1` here?
**A.** 1300 nM

**Q.** And the IC50 (HT-29 [1])?
**A.** 1600 nM

**Q.** How did the IC50 (Choline kinase alpha) turn out when `CN(C)c1cc[n+](Cc2cccc(-c3cccc(C[n+]4ccc(N(C)C)c5ccccc54)c3)c2)c2ccccc12` was run?
**A.** 4400 nM

**Q.** What about the IC50 (HT-29 [1]) of the same molecule?
**A.** 1600 nM

**Q.** What does the source list for `Cc1c(N)ccc2c(N(C)c3ccccc3)cc[n+](Cc3cccc(-c4cccc(C[n+]5ccc(N(C)c6ccccc6)c6ccc(N)c(C)c65)c4)c3)c12`?
**A.** IC50 (Choline kinase alpha): 56800 nM; IC50 (HT-29 [1]): 3800 nM

**Q.** What does the source list for `CN(C)c1cc[n+](Cc2ccc(CCc3ccc(C[n+]4ccc(N(C)C)c5ccc(Cl)cc54)cc3)cc2)c2cc(Cl)ccc12`?
**A.** IC50 (Choline kinase alpha): 9000 nM; IC50 (HT-29 [2]): 450 nM; IC50 (HT-29 [1]): 270 nM

**Q.** Which results are given for `Cc1c(N)ccc2c(N(C)c3ccc(Cl)cc3)cc[n+](Cc3cccc(-c4cccc(C[n+]5ccc(N(C)c6ccc(Cl)cc6)c6ccc(N)c(C)c65)c4)c3)c12`?
**A.** IC50 (Choline kinase alpha): 147000 nM; IC50 (HT-29 [1]): 33000 nM

**Q.** How did the IC50 (HT-29 [1]) turn out when `CN(c1ccc(Cl)cc1)c1cc[n+](Cc2cccc(-c3cccc(C[n+]4ccc(N(C)c5ccc(Cl)cc5)c5ccc(Cl)cc54)c3)c2)c2cc(Cl)ccc12` was run?
**A.** 1900 nM

**Q.** For `Cc1c[n+](Cc2cccc(-c3cccc(C[n+]4cc(C)c(N)c5ccccc54)c3)c2)c2ccccc2c1N`, which IC50 (Choline kinase alpha) is on record?
**A.** 11900 nM

**Q.** And the IC50 (HT-29 [1])?
**A.** 4400 nM

**Q.** Which results are given for `CN(c1ccccc1)c1cc[n+](Cc2ccc(CCc3ccc(C[n+]4ccc(N(C)c5ccccc5)c5ccc(Cl)cc54)cc3)cc2)c2cc(Cl)ccc12`?
**A.** IC50 (Choline kinase alpha): 3500 nM; IC50 (HT-29 [1]): 500 nM

**Q.** `Nc1cc[n+](Cc2ccc(CCc3ccc(C[n+]4ccc(N)c5ccc(Cl)cc54)cc3)cc2)c2cc(Cl)ccc12` was tested. Which IC50 (Choline kinase alpha) did it give?
**A.** > 200000 nM

**Q.** What about the IC50 (HT-29 [1]) of the same molecule?
**A.** 1900 nM

**Q.** For `CN(c1ccc(Cl)cc1)c1cc[n+](Cc2ccc(-c3ccc(C[n+]4ccc(N(C)c5ccc(Cl)cc5)c5ccccc54)cc3)cc2)c2ccccc12` [RSM-932A], which IC50 (HT-29 [1]) is on record?
**A.** 1200 nM

**Q.** How did the IC50 (Choline kinase alpha) turn out when `CN(c1ccccc1)c1cc[n+](Cc2ccc(-c3ccc(C[n+]4ccc(N(C)c5ccccc5)c5ccc(Cl)cc54)cc3)cc2)c2cc(Cl)ccc12` was run?
**A.** 11400 nM

**Q.** And the IC50 (HT-29 [1])?
**A.** 500 nM

**Q.** How did the IC50 (Choline kinase alpha) turn out when `Cc1c(N)ccc2c(N(C)c3ccccc3)cc[n+](Cc3ccc(-c4ccc(C[n+]5ccc(N(C)c6ccccc6)c6ccc(N)c(C)c65)cc4)cc3)c12` was run?
**A.** 96100 nM

**Q.** And the IC50 (HT-29 [1])?
**A.** 25200 nM

**Q.** For `CN(C)c1cc[n+](Cc2ccc(-c3ccc(C[n+]4ccc(N(C)C)c5ccc(Cl)cc54)cc3)cc2)c2cc(Cl)ccc12`, which IC50 (Choline kinase alpha) is on record?
**A.** 20600 nM

**Q.** What about the IC50 (HT-29 [1]) of the same molecule?
**A.** 800 nM

**Q.** For `Cc1c(N)ccc2c(N(C)c3ccccc3)cc[n+](Cc3ccc(CCc4ccc(C[n+]5ccc(N(C)c6ccccc6)c6ccc(N)c(C)c65)cc4)cc3)c12`, which IC50 (Choline kinase alpha) is on record?
**A.** 133000 nM

**Q.** What about the IC50 (HT-29 [1]) of the same molecule?
**A.** 7000 nM

**Q.** Which results are given for `Nc1cc[n+](Cc2ccc(-c3ccc(C[n+]4ccc(N)c5ccccc54)cc3)cc2)c2ccccc12`?
**A.** IC50 (Choline kinase alpha): 81100 nM; IC50 (HT-29 [1]): 2200 nM

**Q.** With `Clc1ccc2c(N3CCCC3)cc[n+](Cc3cccc(-c4cccc(C[n+]5ccc(N6CCCC6)c6ccc(Cl)cc65)c4)c3)c2c1` as the molecule, how does the IC50 (HT-29 [1]) read?
**A.** 400 nM

**Q.** For `CN(C)c1cc[n+](Cc2ccc(-c3ccc(C[n+]4ccc(N(C)C)c5ccccc54)cc3)cc2)c2ccccc12`, which IC50 (Choline kinase alpha) is on record?
**A.** 39700 nM

**Q.** And the IC50 (HT-29 [1])?
**A.** 1700 nM

**Q.** What does the source list for `c1ccc(Nc2cc[n+](Cc3ccc(-c4ccc(C[n+]5ccc(Nc6ccccc6)c6ccccc65)cc4)cc3)c3ccccc23)cc1`?
**A.** IC50 (Choline kinase alpha): 17800 nM; IC50 (HT-29 [1]): 700 nM

**Q.** What does the source list for `Nc1cc[n+](Cc2cccc(-c3cccc(C[n+]4ccc(N)c5ccccc54)c3)c2)c2ccccc12`?
**A.** IC50 (Choline kinase alpha): 1200 nM; IC50 (HT-29 [1]): 1900 nM

**Q.** `Clc1ccc2c(N3CCCC3)cc[n+](Cc3ccc(-c4ccc(C[n+]5ccc(N6CCCC6)c6ccc(Cl)cc65)cc4)cc3)c2c1` was tested. Which IC50 (Choline kinase alpha) did it give?
**A.** 19800 nM

**Q.** What about the IC50 (HT-29 [1]) of the same molecule?
**A.** 2400 nM

**Q.** Which IC50 (Choline kinase alpha) does the source give for `Cc1c(N)ccc2c(N(C)c3ccc(Cl)cc3)cc[n+](Cc3ccc(CCc4ccc(C[n+]5ccc(N(C)c6ccc(Cl)cc6)c6ccc(N)c(C)c65)cc4)cc3)c12` here?
**A.** 57500 nM

**Q.** What about the IC50 (HT-29 [1]) of the same molecule?
**A.** 19500 nM

**Q.** `CN(c1ccc(Cl)cc1)c1cc[n+](Cc2cccc(-c3cccc(C[n+]4ccc(N(C)c5ccc(Cl)cc5)c5ccccc54)c3)c2)c2ccccc12` was tested. Which IC50 (HT-29 [1]) did it give?
**A.** 1500 nM

**Q.** `CN(c1ccccc1)c1cc[n+](Cc2ccc(-c3ccc(C[n+]4ccc(N(C)c5ccccc5)c5ccccc54)cc3)cc2)c2ccccc12` was tested. Which IC50 (Choline kinase alpha) did it give?
**A.** 3000 nM

**Q.** And the IC50 (HT-29 [1])?
**A.** 600 nM
